# According to US5086059A, “Bis-naphthalimides as anticancer agents” (Du Pont Merck Pharmaceutical Company, priority 1990, dated 1992):
# pIC50: −log10 of the molar value. Structures can show the parent of a compound that is named as a salt. Where two headings read alike, the source gives them in different places.
# Assays:
# L1210 cells = assay: In vitro Growth Inhibitory Activity Determination (L1210, MTT); assay type: cell-based; details: 3 days at 37° C., read-out: ID50 (L1210)
# Description: L1210 cells were maintained in RPM-1640 a medium supplemented with 10% heat inactivated fetal bovine serum and […] mercaptomethanol/liter medium (RPMI-L). B16 cells were maintained in RPMI-1640 medium supplemented with 15% heat inactivated fetal bovine serum and antibiotics (RPMI-C).
# Exponential growing L1210 cells (1×10^3 cells) or B16 cells (2-3×10^3 cells) in 0.1 mL medium were seeded on day 0 in a 96-well microtiter plate. On day 1, 0.1 mL aliquot of medium containing graded concentration of test analogs was added to the initial volume. After incubation at 37° C. in a humidified incubator for 3 days, the plates were centrifuged briefly and […] of the growth medium was removed. Cell cultures were incubated with […] of 3-(4,5-dimethylthiazol-2-yl)-2,5-diphenyltetrazolium bromide (MTT; 1 mg/ml in Dulbecco's phosphate buffer saline) for 4 hr. at 37° C. The resulting purple formazan precipitate was solubilized with […] of 0.04 N HCl in isopropyl alcohol. Absorbance was read in a Titertek Multiskan MCC scanning well spectrophotometer (Flow Laboratories) at a test wavelength of 570 nm and a reference wavelength of 630 nm.
# The absorbances were stored on a floppy disk on a IBM-XT and uploaded on to a VAX computer. The ID50 values were determined by a computer program that fit all of the data (8 determinations per concentration and 12 concentrations per test analog) to the following equation:
# Y=((Am-Ao)/(1+(X/ID50)n))+Ao
# Am=absorbance of the control cells
# Ao=absorbance of the cells in the presence of highest drug conc.
# ID50 =dose of drug that inhibits the growth of cells to one half that of the control cells
# B16F10 melanoma = assay: Tumor Cell Clearance Test B16F10 Melanoma; assay type: in vivo, mouse; details: for CPM/Lung (Mean + SEM): labelled B16F10 cells i.v. 24 h later, lungs counted 18 h later; for CPM/Lung (Mean + SEM) / Treated/Control: N=6; for Treated/Control: T/C <0.40 considered positive
# From the text: One common route of cancer spread is through the blood. Very few cancer cells survive this hostile environment to go on and form metastases; NK cells and macrophages are believed to play an important role in controlling this hematogenous spread (Hanna, N. Cancer Research, 42:1337, 1982). Following the injection of various immunomodulators, macrophages and NK cells can be removed and shown to kill tumor cells in tissue culture. […] In the tumor cell clearance assay detailed below, radiolabelled tumor cells are injected intravenously (i.v.) into mice injected with an immunomodulator one day earlier. A decreased number of tumor cells, as reflected by a decreased amount of radioactivity remaining in the lungs, is used as an endpoint.
# The B16 tumor line established from melanoma tumor which arose spontaneously on the skin at the base of the ear in a C57BL mouse. The B16F10 tumor subline was derived from the parent B16 line by selection for its ability to form lung tumors […] after i.v. injection and was subsequently established in vitro after 10 cycles of lung metastasis formation (Fidler, Eur. J. Cancer 9:223, 1973). The B16F10 tumor line is maintained by serial passage in vitro.
# On day 0 female mice are injected intraperitoneally (i.p.) with test compound (6 mice/group) or vehicle alone (10 mice/group). Twenty-four hours later all mice are injected intravenously with 100,000 [^125 I] Iododeoxyuridine labelled B16F10 melanoma cells in 0.2 mL. Eighteen hours later mice are sacrificed and lungs removed and counted on a gamma counter.
# Control and experimental group mean values are compared to the vehicle control using a Student's t-test. Poly I:C is an immunostimulant which activates macrophages and NK cells to kill and clear tumor cells faster and thus results in fewer cpm/lung. Statistical significance is set at p<0.05, and compounds with treated/control (T/C) values of <0.40 are considered positive.
compound,measurement,setting,value
"O=C1c2ccc3c4c(ccc(c24)C(=O)N1CCCNCCCCNCCCN1C(=O)c2ccc4c5c(ccc(c25)C1=O)CC4)CC3 [Example 1, 1,4-Bis-[3-(1,3,6,7-tetrahydro-1,3-dioxo-2H-indeno[6,7,1-def]isoquinoline-2-yl)propyl)-amino]butane dihydromethanesulfonate]",pIC50,"L1210 cells; Mus musculus, L1210, 72 h",5.52
"O=C1c2ccc3c4c(ccc(c24)C(=O)N1CCCCNCCCN1C(=O)c2ccc4c5c(ccc(c25)C1=O)CC4)CC3 [Example 4, 4-3-(1,3,6,7-Tetrahydro-1,3-dioxo-2H-indeno6,7,1-def]isoquinoline-2-yl)propyl-amino1-1-(1,3,6,7-tetrahydro-1,3-dioxo-2H-indeno-6,7,1-def]isoquinoline-2-yl)butane methanesulfonate]",pIC50,"L1210 cells; Mus musculus, L1210, 72 h",6.54
"O=C1c2ccc3c4c(ccc(c24)C(=O)N1CCCNCCCCNCCCN1C(=O)c2ccc4c5c(ccc(c25)C1=O)CC4)CC3 [Example 2, 1.4-Bis-[3 3.6 7-tetrahydro-1.3-dioxo-2H-indeno[6,7,1-def]isoquinoline-2-yl)propyl-amino]butane dihydrochloride]",pIC50,"L1210 cells; dihydrochloride, 4320 min",5.76
Poly I:C [reference compound],CPM/Lung (Mean + SEM),B16F10 melanoma; 5 mg/kg i.p. on day 0,1044 + 87 CPM/Lung
same,Treated/Control,"B16F10 melanoma; 5 mg/kg i.p., *p < 0.001 compared to vehicle control",0.03
"CCN(CCCCN(CC)CCCN1C(=O)c2ccc3c4c(ccc(c24)C1=O)CC3)CCCN1C(=O)c2ccc3c4c(ccc(c24)C1=O)CC3 [Example 3, 1,4-Bis-3-(1,3,6,7-tetrahydro-1,3-dioxo-2H-indeno6,7,1-def]isoquinoline-2-yl)-N-ethyl-propylamino]butane dihydrochloride]",pIC50,"L1210 cells; Mus musculus, L1210, 72 h",7.66
same,CPM/Lung (Mean + SEM),B16F10 melanoma; 6.25 mg/kg i.p. on day 0,27953 + 2567 CPM/Lung
same,Treated/Control,B16F10 melanoma; 6.25 mg/kg i.p.,0.90
same,CPM/Lung (Mean + SEM),B16F10 melanoma; 12.5 mg/kg i.p. on day 0,24905 + 2497 CPM/Lung
same,Treated/Control,B16F10 melanoma; 12.5 mg/kg i.p.,0.80
same,CPM/Lung (Mean + SEM),B16F10 melanoma; 25 mg/kg i.p. on day 0,6992 + 1417 CPM/Lung
same,Treated/Control,"B16F10 melanoma; 25 mg/kg i.p., *p < 0.001 compared to vehicle control",0.23
same,CPM/Lung (Mean + SEM),B16F10 melanoma; 50 mg/kg i.p. on day 0,3558 + 476 CPM/Lung
same,Treated/Control,"B16F10 melanoma; 50 mg/kg i.p., *p < 0.001 compared to vehicle control",0.11
same,activating nonspecific immune cells against tumor cells,"B16F10 melanoma; result in words, mice, B16F10 tumor cell clearance",effective in activating nonspecific immune cells against the B16F10 melanoma
